Read-outs that look alike come from different tables or passages of the source. Values belong to the molecule of their own block, whether it stands above or below them.
How the values were obtained:
[1] = Phase 1 crossover drug-drug interaction study, plasma pharmacokinetics by HPLC-MS/MS, non-compartmental analysis; details: for effect of coadministered LDV/SOF on exposure (C max, AUC tau): LDV/SOF + R/F/TAF vs R/F/TAF; for effect of coadministered LDV/SOF on exposure (C max, AUC tau) / effect of coadministered R/F/TAF on exposure (C max, AUC tau): result in words; for C tau / AUC / Cmax / AUC(0-t): mean (%CV); for AUC / Cmax / Tmax / half-life / AUC(0-t): human; for AUC: AUCtau, healthy subjects, fed, multiple dose; for Cmax: C max; for Tmax: T max; for effect of coadministered R/F/TAF on exposure (C max, AUC tau): LDV/SOF + R/F/TAF vs LDV/SOF; for AUC(0-t): AUClast;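 on all read-outs here: blood sampled at steady state on final dosing day, predose through 24 h after dose, study drug given shortly after standardized breakfast, with isotopically labeled internal standards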
[2] = in vivo; for C max / T max / t 1/2: human
[3] = clinical; details: human, in vivo; for AUC: AUCtau, healthy subjects, fed, multiple dose; for AUC / Cmax: plasma, mean (%CV); for Cmax: C max; for half-life: median (first quartile, third quartile)
[4] = cited from earlier work
[5] = parameters: method as in German et al. 2014; details: ref German et al. 2014, cited from earlier work
[6] = Reference: R/F/TAF (N = 42), plasma
[7] = Test: LDV/SOF + R/F/TAF (N = 42), plasma
[8] = plasma, oral, Reference: R/F/TAF (N = 42), plasma
[9] = plasma, oral, Test: LDV/SOF + R/F/TAF (N = 42), plasma
[10] = plasma, oral, t 1/2, Reference: R/F/TAF (N = 42), median (first quartile, third quartile)
[11] = plasma, oral, t 1/2, Test: LDV/SOF + R/F/TAF (N = 42), median (first quartile, third quartile)
[12] = test LDV/SOF + R/F/TAF vs reference R/F/TAF
[13] = Test: LDV/SOF + R/F/TAF (N = 42)
[14] = t 1/2, Reference: LDV/SOF (N = 41)
[15] = t 1/2, Test: LDV/SOF + R/F/TAF (N = 42)
[16] = Reference: LDV/SOF (N = 41), median (first quartile, third quartile)
[17] = test LDV/SOF + R/F/TAF vs reference LDV/SOF
[18] = in vivo, Reference: R/F/TAF (N = 42), plasma
[19] = in vivo, Test: LDV/SOF + R/F/TAF (N = 42), plasma

Compound: COC(=O)N[C@H](C(=O)N1CC2(CC2)C[C@H]1c1ncc(-c2ccc3c(c2)C(F)(F)c2cc(-c4ccc5nc([C@@H]6[C@H]7CC[C@H](C7)N6C(=O)[C@@H](NC(=O)OC)C(C)C)[nH]c5c4)ccc2-3)[nH]1)C(C)C [LDV, ledipasvir]
AUC ([3]; Reference: LDV/SOF (N = 41)): 11600 ng·h/mL
AUC [3, 13]: 11900 ng·h/mL
Cmax ([3]; Reference: LDV/SOF (N = 41)): 647 ng/mL
Cmax [3, 13]: 658 ng/mL
half-life [3, 14]: 32.6 h
half-life [3, 15]: 31.3 h
effect of coadministered R/F/TAF on exposure (C max, AUC tau) [1]: did not noticeably increase
effect of coadministered R/F/TAF on exposure (C max, AUC tau) ([1]; listed as ledipasvir): no relevant effect
T max [1, 16]: 4.5 (4.5, 5.0) h
C tau ([1]; Reference: LDV/SOF (N = 41), plasma): 420 (46) ng/mL
C tau [1, 7]: 434 (47) ng/mL
GLSM ratio (test/reference) of AUCtau [1, 17]: 102%
GLSM ratio (test/reference) of C max [1, 17]: 101%
GLSM ratio (test/reference) of C tau [1, 17]: 102%

Compound: Cc1cc(/C=C/C#N)cc(C)c1Nc1ccnc(Nc2ccc(C#N)cc2)n1 [RPV, rilpivirine]
Tmax [3]: 5 h
effect of coadministered LDV/SOF on exposure (C max, AUC tau) [1]: no effect
C tau [1, 6]: 109 (32) ng/mL
T max ([1]; Test: LDV/SOF + R/F/TAF (N = 42), median (first quartile, third quartile)): 4.0 (4.0, 5.0) h
C tau [1, 7]: 100 (26) ng/mL
AUC [1, 8]: 3040 ng·h/mL
AUC [1, 9]: 2860 ng·h/mL
Cmax [1, 8]: 203 ng/mL
Cmax [1, 9]: 197 ng/mL
half-life [1, 10]: 32.8 h
half-life [1, 11]: 30.4 h
GLSM ratio (test/reference) of AUCtau [1, 12]: 95%
GLSM ratio (test/reference) of C max [1, 12]: 97%
GLSM ratio (test/reference) of C tau [1, 12]: 93%

Compound: CC(C)OC(=O)[C@H](C)N[P@](=O)(OC[C@H]1O[C@@H](n2ccc(=O)[nH]c2=O)[C@](C)(F)[C@@H]1O)Oc1ccccc1 [SOF, sofosbuvir]
AUC ([3]; Reference: LDV/SOF (N = 41)): 2910 ng·h/mL
AUC [3, 13]: 3070 ng·h/mL
Cmax ([3]; Reference: LDV/SOF (N = 41)): 1470 ng/mL
Cmax [3, 13]: 1390 ng/mL
half-life [3, 14]: 0.5 h
half-life [3, 15]: 0.5 h
effect of coadministered R/F/TAF on exposure (C max, AUC tau) [1]: did not noticeably increase
effect of coadministered R/F/TAF on exposure (C max, AUC tau) ([1]; listed as sofosbuvir): no relevant effect
T max [1, 16]: 2.0 (1.5, 3.0) h
GLSM ratio (test/reference) of AUCtau [1, 17]: 105%
GLSM ratio (test/reference) of C max [1, 17]: 96%

Compound: CC(C)OC(=O)[C@H](C)N[P@](=O)(CO[C@H](C)Cn1cnc2c(N)ncnc21)Oc1ccccc1 [TAF, tenofovir alafenamide]
lower plasma tenofovir exposure compared to TDF 300 mg ([4]; TAF 25 mg vs TDF 300 mg, reference not given): ~ 90%
less plasma TFV exposures than TDF ([4]; TAF vs TDF, ref Sax et al. 2015, Zack et al. 2016, Gilead Sciences Inc, 2017b): 80–90%
effect of coadministered LDV/SOF on exposure (C max, AUC tau) [1]: no effect
t 1/2 ([1]; Reference: R/F/TAF (N = 42), median (first quartile, third quartile)): 0.5 (0.4, 0.6) h
AUC(0-t) [1, 18]: 277 ng·h/mL
AUC(0-t) [1, 19]: 362 ng·h/mL
Cmax [1, 18]: 200 ng/mL
Cmax [1, 19]: 205 ng/mL
Tmax ([1]; in vivo, Reference: R/F/TAF (N = 42), median (first quartile, third quartile)): 1.5 h
Tmax ([1]; in vivo, Test: LDV/SOF + R/F/TAF (N = 42), median (first quartile, third quartile)): 1.8 h
GLSM ratio (test/reference) of AUClast [1, 12]: 132%
GLSM ratio (test/reference) of C max [1, 12]: 103%

Now from value to molecule, other results behind:

effect of coadministered LDV/SOF on exposure (C max, AUC tau) [1]: no effect
C tau [1, 6]: 88 (28) ng/mL
C tau [1, 7]: 89 (25) ng/mL
AUC [1, 8]: 10800 ng·h/mL
AUC [1, 9]: 10800 ng·h/mL
Cmax [1, 8]: 1710 ng/mL
Cmax [1, 9]: 1650 ng/mL
Tmax ([1]; plasma, oral, Reference: R/F/TAF (N = 42), median (first quartile, third quartile)): 2.5 h
Tmax ([1]; plasma, oral, Test: LDV/SOF + R/F/TAF (N = 42), median (first quartile, third quartile)): 3 h
half-life [1, 10]: 6.5 h
half-life [1, 11]: 5.1 h
GLSM ratio (test/reference) of AUCtau [1, 12]: 100%
GLSM ratio (test/reference) of C max [1, 12]: 97%
GLSM ratio (test/reference) of C tau [1, 12]: 102%
Compound: Nc1nc(=O)n([C@@H]2CS[C@H](CO)O2)cc1F [FTC, emtricitabine]

C max [2]: 884 (14) ng/mL
T max [2]: 4.5 (4.0, 4.5) h
t 1/2 [2]: 16.7 (13.8, 21.9) h
C tau [2]: 340 (16) ng/mL
Compound: C[C@@]1(F)[C@H](O)[C@@H](CO)O[C@H]1n1ccc(=O)[nH]c1=O [GS‐331007]

C max [2]: 510 (20) ng/mL
T max [2]: 3.0 (2.0, 4.0) h
t 1/2 [2]: 2.2 (2.0, 2.5) h
Compound: C[C@H](NP(=O)(O)OC[C@H]1O[C@@H](n2ccc(=O)[nH]c2=O)[C@](C)(F)[C@@H]1O)C(=O)O [GS‐566500]

C tau [1, 6]: 9 (25) ng/mL
C tau [1, 7]: 17 (22) ng/mL
AUC [1, 8]: 268 ng·h/mL
AUC [1, 9]: 467 ng·h/mL
Cmax [1, 8]: 16 ng/mL
Cmax [1, 9]: 25 ng/mL
half-life [1, 10]: 32 h
half-life [1, 11]: 44.5 h
GLSM ratio (test/reference) of AUCtau [1, 12]: 175%
GLSM ratio (test/reference) of C max [1, 12]: 162%
GLSM ratio (test/reference) of C tau [1, 12]: 185%
Compound: C[C@H](Cn1cnc2c(N)ncnc21)OCP(=O)(O)O [TFV, tenofovir]
increase in TFV exposure ([5]; R/F/TDF coadministered with LDV/SOF compared to R/F/TDF alone): 40%
TFV exposure ([5]; R/F/TDF coadministered with LDV/SOF): 4,780 ng·h/mL
